Laboratory results taken from patent publication US20150258052A1, “METHODS OF USING FEXARAMINE AND AGENTS THAT INCREASE SYMPATHETIC NERVOUS SYSTEM ACTIVITY TO PROMOTE BROWNING OF WHITE ADIPOSE TISSUE” (Salk Institute for Biological Studies, priority 2014, published 2015).

Columns and labels:
Format in all cases: in vivo
[1] = system: FGF15 signaling and bile acid composition; experiment: FGF15 signaling, hepatic bile acid genes, serum bile acid composition and intestinal barrier in Fex-treated HFD mice
Procedure: FIGS. 7A-7H show a comparative expression chart and bar charts illustrating that fexaramine increased endogenous FGF15 signaling and changes in BA composition. Mice were fed HFD for 14 weeks and then administered daily oral injections of vehicle or fexaramine (100 mg/kg) for 5 weeks with HFD. In the bar graphs, open bars represent vehicle treatment and solid bars represent fexaramine treatment, and data represent the mean±STD. Statistical analysis was performed with the Student's t test (*p<0.05, **p<0.01).
FIG. 8 is a bar graph showing hepatic Cyp7a1 levels determined by ELISA. Data represent the mean±SD. Statistical analysis was performed with the Student's t test. *p<0.05, **p<0.01.
Mice fed a HFD for 14 weeks were maintained on a HFD and treated with vehicle or fexaramine (100 mg/kg/day per os for 5 week). Serum bile acid composition was determined by mass spectrometry. N.D. not determined.
FXR activation has been reported to enhance mucosal defense gene expression and intestinal barrier function (Inagaki et al., Proc Natl Acad Sci USA 103:3920-3925, 2006; Gadaleta., et al. Gut 60:463-472, 2011).

DIO mice [2] = experiment: Chronic oral fexaramine in diet-induced obesity (DIO) mice: weight, adiposity, serum parameters, GTT, ITT; conditions: for glucose tolerance (glucose tolerance test) / insulin sensitivity (insulin tolerance test): PO 5 weeks
Procedure: FIGS. 2A-2G are graphs illustrating the reduction of diet-induced obesity and improvement in metabolic homeostasis with fexaramine. Mice were fed a high fat diet (HFD) for 14 weeks and then administered daily oral injections of vehicle (open boxes) or fexaramine (100 mg/kg) (solid boxes) for 5 weeks with HFD. Data represent the mean±STD. Statistical analysis was performed with the Student's t test (*p<0.05, **p<0.01).
FIG. 2A is a line chart illustrating changes in body weight of mice fed a high fat diet (HFD) for 14 weeks and then administered daily oral injections of vehicle (open boxes) or fexaramine (100 mg/kg) (solid boxes) for 5 weeks with HFD. n=8 per group.
FIG. 4A is a line graph showing the effects of fexaramine at various dosage levels on the body weight of mice fed a HFD for 14 weeks and then administered daily oral injections of vehicle or fexaramine (10, 50 or 100 mg/kg) for 5 weeks with a HFD. Data represent the mean±STD. Statistical analysis was performed with the Student's t test (*p<0.05, **p<0.01).
FIG. 4B is a set of digital images showing histological analysis of the ileum and colon following treatment with fexaramine or vehicle. Mice were fed on HFD for 14 weeks, and then administered daily oral injections of vehicle or fexaramine (100 mg/kg) for 5 weeks with HFD.
FIG. 4C is a line graph showing glucose tolerance tests in mice fed a HFD for 14 weeks and then administered daily oral injections of vehicle or fexaramine (10, 50 or 100 mg/kg) for 5 weeks with HFD. Data represent the mean±STD. Statistical analysis was performed with the Student's t test (*p<0.05, **p<0.01).
The physiological effects of fexaramine in established obesity (diet-induced obesity, DIO) models were evaluated. C57BL/6J mice were fed a diet of 60% fat for 14 weeks and then treated PO with vehicle or fexaramine (100 mg/kg) for 5 weeks. […] Analyses of serum metabolic parameters including leptin, insulin, cholesterol, and resistin reflected that fexaramine-mediated weight gain resistance is accompanied by improved endocrine and metabolic profiles (FIGS. 2D and 4D).
Obesity and its metabolic complications are associated with chronic low-grade inflammation, reflected by elevated serum levels of inflammatory cytokines. […] Therefore, glucose tolerance tests (GTTs) and insulin tolerance tests (ITTs) were performed to determine if glucose homeostasis was improved in fexaramine-treated DIO mice.

DIO mice [3] = experiment: Hyperinsulinemic-euglycemic clamp and liver analysis in Fex-treated DIO mice
Procedure: Mice were fed HFD for 14 weeks and then subjected to daily PO injection of vehicle or fexaramine (100 mg/kg) for 5 weeks with HFD. In the bar graphs, open bars are vehicle, solid bars are fexaramine, and data represent the mean±STD. Statistical analysis was performed with the Student's t test (*p<0.05, **p<0.01).
FIGS. 15I-15K are a line graph and two bar graphs showing the effect of fexaramine treatment on body weight, insulin-stimulated GDR, and fasting insulin levels. Mice were fed HFD for 14 weeks, and then administered daily oral injections of vehicle or fexaramine (100 mg/kg) for 3 weeks with HFD. The mice treated with fexaramine were initially heavier (by 2-3 grams). Three weeks after treatment, a clamp study was performed on the mice. Data represent the mean±STD. Statistical analysis was performed with the Student's t test (*p<0.05, **p<0.01).
Liver insulin resistance has been linked to obesity-induced hepatic steatosis (Cohen et al., Science 332:1519-1523, 2011). […] Furthermore, decreased serum alanine aminotransferase (ALT) levels were measured in Fex-treated mice, indicating reduced HFD-induced liver damage (FIG. 15H). Thus, in DIO mice Fex promotes hepatic insulin sensitization, reduced steatosis, improved metabolic markers, decreased ALT and enhanced BAT activity.

normal chow-fed mice = experiment: Chronic oral fexaramine in normal chow-fed mice
Procedure: FIGS. 3A-3D are line graphs and a bar graph showing the effects of fexaramine administration in normal chow-fed mice. The mice were treated with vehicle or fexaramine (100 mg/kg) via PO for 5 weeks. Data represent the mean±STD. Statistical analysis as performed with the Student's t test (*p<0.05, **p<0.01).
To investigate the physiological effects of intestinal FXR activation by fexaramine, mice were subjected to chronic fexaramine (100 mg/kg Fex) PO treatment for 5 weeks.

FXR-null mice = experiment: Fexaramine in HFD-fed FXR-null mice; conditions: 100 mg/kg 5 weeks
Procedure: Data represent the mean±SD. Statistical analysis was performed with the Student's t test. *p<0.05, **p<0.01.

[4] = DIO mice, chronic Fex treatment

COC(=O)/C=C/c1cccc(N(Cc2ccc(-c3ccc(N(C)C)cc3)cc2)C(=O)C2CCCCC2)c1 [Fex, fexaramine]
FGF15 expression in intestine (RNA-Seq) ([1]; 100 mg/kg PO 5 weeks): dramatically up-regulated
bile acid pool size (total serum BA levels) ([1]; 100 mg/kg PO 5 weeks): reducing the bile acid pool size
ratio of unconjugated to conjugated cholic acid ([1]; 100 mg/kg PO 5 weeks): remarkably increased
circulating FGF15 ([1]; 100 mg/kg PO 5 weeks, serum): increase in circulating FGF15
expression of liver FXR target genes SHP and BSEP ([1]; chronic Fex treatment): not altered
hepatic CYP7A1 expression (mRNA and protein) ([1]; chronic Fex treatment): significantly repressed
hepatic expression of CYP8B1 and CYP27A1 ([1]; chronic Fex treatment): not affected
expression of mucosal defense genes Occludin and Muc2 ([1]; chronic Fex-treatment): increased expression
intestinal toxicity (histology of ileum and colon) (DIO mice [2]; DIO mice, 100 mg/kg PO 5 weeks): no signs of intestinal toxicity
overall fat mass (MRI) (DIO mice [2]; DIO mice, 100 mg/kg PO 5 weeks): reduced overall fat mass
serum levels of inflammatory cytokines TNFα, IL-1α, IL-1β, IL-17 and MCP-1 (DIO mice [2]; DIO mice, 100 mg/kg PO 5 weeks): markedly decreased
wet weights of subcutaneous (inguinal) and visceral (gonadal and mesenteric) adipose depots (DIO mice [2]; DIO mice, 100 mg/kg PO 5 weeks): significant reductions
glucose, insulin, leptin, cholesterol and resistin levels (DIO mice [2]; DIO mice, 100 mg/kg PO 5 weeks, serum after 8 hours fasting): reduced glucose, insulin, leptin, cholesterol, and resistin levels
prevention of weight gain, dose dependence (DIO mice [2]; DIO mice, 10, 50 or 100 mg/kg PO 5 weeks): dose-dependent manner
weight gain (DIO mice [2]; DIO mice, HFD 14 weeks then 100 mg/kg PO 5 weeks): prevented weight gain
glucose tolerance (glucose tolerance test) (DIO mice [2]; DIO mice): dose-dependent improvements
insulin sensitivity (insulin tolerance test) (DIO mice [2]; DIO mice): dose-dependent improvements
glucose tolerance (glucose tolerance test) (DIO mice [2]; DIO mice, listed as fexaramine): improved glucose clearance
insulin sensitivity (insulin tolerance test) (DIO mice [2]; DIO mice, listed as fexaramine): improved insulin sensitivity
weight gain at the highest dose (DIO mice [2]; DIO mice, highest dose): almost completely abrogated
lipid droplets in liver (histology, hepatic steatosis) (DIO mice [3]; DIO mice, 100 mg/kg PO 5 weeks): reduction in lipid droplets
serum alanine aminotransferase (ALT) levels (DIO mice [3]; DIO mice, 100 mg/kg PO 5 weeks): decreased
hepatic expression of gluconeogenic and lipogenic genes (DIO mice [3]; [4]): reduced hepatic expression
hepatic triglycerides (DIO mice [3]; [4]): marked decrease
insulin-mediated suppression of HGP (DIO mice [3]; hyperinsulinemic-euglycemic clamp, versus control DIO mice): marked increase
basal HGP, GDR, IS-GDR, FFA suppression and fasting insulin levels (DIO mice [3]; weight-matched cohorts, hyperinsulinemic-euglycemic clamp): No differences
weight gain, basal metabolic activity and glucose tolerance (normal chow-fed mice; chow-fed mice, 100 mg/kg PO 5 weeks): indistinguishable from vehicle-treated mice
glucose homeostasis (normal chow-fed mice; normal chow-fed mice, range of doses): no effects observed
Fex-induced changes in gene expression and improvements in metabolic homeostasis (FXR-null mice): abrogated
